Assays:
HDFs = assay: proliferation of HDFs; assay type: cell-based, human
[1] = system: Primary human dermal fibroblasts (HDFs); assay: ROS production (DHE cytosolic, MitoSOX Red mitochondrial) in stressed primary human dermal fibroblasts; assay type: cell-based; settings: for decrease of cytosolic ROS production (DHE) / reduction of mitochondrial ROS production (MitoSOX Red): 5 mM BHB 72 hours, then 100 μM tert-butyl-hydrogen peroxide 3 hrs
Description: Primary human dermal fibroblasts (HDFs, passaged 2-8) from young and aged donors (24 to 88 years) were incubated in the absence or presence of BHB for 72 hours prior to stress with 100 μM tert-buytl-hydrogen peroxide for 3 hours. ROS production was measured fluorescently with dihydroethidium (DHE, cytosolic) and MitoSOX Red (mitochondrial) in triplicate, N=6. In the cytosol, aged HDFs produced 28% (p=<0.001)) more ROS basally compared to their young counterparts. When incubated in BHB for 72 hours, ROS production in the young HDFs decreased by 40% (p=<0.0001) and by 41% (p=<0.0001) in the aged. In the mitochondria, aged HDFs produced 27% (p=<0.0001) more ROS at baseline than the young HDFs, consistent with observations in cytosol. […] As such, ketone supplementation is useful against redox stress and augments wound healing, shifting redox homeostasis in HDFs, especially in the elderly. Primary human dermal fibroblasts (HDFs, passaged 2-8) from young and aged donors (24 to 88 years) were incubated in the absence or presence of 5 mM beta-hydroxybutyrate (BHB) for 72 hours. To simulate a wound environment, the cells were then stressed with 100 μM tert-butyl-hydrogen peroxide for 3 hrs. ROS production was measured fluorescently with dihydroethidium (DHE, cytosolic) and Mitosox Red (mitochondrial) in triplicate, N=6. In the cytosol, seen in FIG. 2(A), aged HDFs produced 25% (p=0.003) more ROS basally compared to their young counterparts. This is consistent with the knowledge that aged cells have less antioxidants to mitigate the ROS production in a stressed environment. When incubated in 5 mM BHB for 72 hours, young HDFs ROS production decreased by 40% (p=<0.0001) and aged ROS production decreased by 41% (p=<0.0001). […] When incubated in BHB, ROS production was reduced in the young by 29% (p<0.0001) and in the aged by 51% (p<0.0001) compared to the controls. […] Significance calculated using one-way ANOVA and t-tests on Prism 6 software.

Young and aged HDFs = assay: scratch migration assay; assay type: cell-based, human; settings: for migrated cells (Dapi staining) versus untreated control: 5 mM BHB 72 hours, 18 hours after scratch
Description: Young and aged HDFs were grown to confluence in 0.2% FBS 5 mM glucose DMEM media, cells were treated with or without the presence of 5 mM BHB for 72 hours, cells were scratched with 200 uL yellow pipette tip. After 18 hours, migrated cells were counted using Dapi staining.

SMILES: CC(O)CC(=O)O (stereo not drawn) [BHB, beta-hydroxybutyrate]
- proliferation (HDFs): did not significantly change proliferation
- decrease of cytosolic ROS production (DHE) ([1]; aged HDFs): 41%
- reduction of mitochondrial ROS production (MitoSOX Red) ([1]; aged HDFs): 51%
- decrease of cytosolic ROS production (DHE) ([1]; young HDFs): 40%
- reduction of mitochondrial ROS production (MitoSOX Red) ([1]; young HDFs): 29%
- cytosolic and mitochondrial ROS production ([1]; young and aged primary human dermal fibroblasts, in words): reduces cytosolic and mitochondrial ROS production
- migrated cells (Dapi staining) versus untreated control (Young and aged HDFs; aged HDFs): migrated significantly more
- migration (Young and aged HDFs; both young and aged HDFs, in words): did increase migration
- migrated cells (Dapi staining) versus untreated control (Young and aged HDFs; young HDFs): migrated significantly more
